Like-named read-outs stand apart in the source and are kept apart here.
Tests used:
[1] = biological target: T1, PcpB (Sphingobium chlorophenolicum, UniProt P42535); assay: Substrate disappearance in the presence of PcpB (substrate range); assay type: biochemical, Flavobacterium sp. Strain ATCC 39723; conditions: for (%) Relative Activity (substrate disappearance in the presence of PcpB): 10 nmoles substrate, 40 nmoles NADPH, PcpB 500 μg/ml, 80 mM potassium phosphate pH 7.5, 0.5% Tween 20, 23° C., PCP assumed 100%; for End Products of PcpB reaction: HPLC or GC/MS analysis
T1 construct: endogenous in cells; host or cells: Flavobacterium sp; Strain ATCC 39723, PCP-induced; enzyme purified in house from the native bacterium
T1 sequence (P42535 2-538): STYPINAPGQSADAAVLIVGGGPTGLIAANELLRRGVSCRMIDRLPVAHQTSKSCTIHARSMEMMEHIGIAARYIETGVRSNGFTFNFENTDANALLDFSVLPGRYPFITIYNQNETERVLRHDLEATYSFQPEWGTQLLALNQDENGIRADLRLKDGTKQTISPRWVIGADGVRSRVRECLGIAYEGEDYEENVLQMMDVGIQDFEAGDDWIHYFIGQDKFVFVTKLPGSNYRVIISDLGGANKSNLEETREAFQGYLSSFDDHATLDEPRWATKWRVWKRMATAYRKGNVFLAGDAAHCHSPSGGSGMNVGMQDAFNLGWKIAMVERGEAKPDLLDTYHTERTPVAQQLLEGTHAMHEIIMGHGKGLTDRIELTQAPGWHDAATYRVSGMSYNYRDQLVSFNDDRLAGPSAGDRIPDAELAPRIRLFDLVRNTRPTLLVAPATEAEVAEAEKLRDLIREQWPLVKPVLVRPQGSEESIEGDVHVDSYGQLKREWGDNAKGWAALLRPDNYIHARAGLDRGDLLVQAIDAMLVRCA
Experimental: A stock solution of PCP (concentration, 37.6 mM) was prepared in 0.2M NaOH and stored in the dark at room temperature. Stock solutions of all other halogenated aromatic compounds (concentration, 20 mM) were prepared in absolute ethanol and stored at 4° C. in the dark. The NADPH solution of 10 mM was freshly prepared in 1 mM dithiothreitol and 1 mM Tris base (pH 13).
PcpB was purified as described above. Enzyme reactions were conducted in 80 mM potassium phosphate buffer (pH 7.5) with 0.5% Tween 20 at 23° C. The enzyme concentration was 500 μg/ml in all reactions.
All of the aromatic substrates and the corresponding enzyme product (aromatic portion) were monitored by reverse phase high-performance liquid chromatography (HPLC) analysis as described above for PCP and TeCH analysis, except that the absorptions at 285, 300, and 310 nm were recorded by using a Waters 490 E programmable multiwavelength UV detector. Gas chromatography/mass spectrometry (GC/MS) analysis was done as previously described (Topp and Akhtar, 1990).
I^- was measured by the Leuco crystal violet assay described above. NO2 was colorimetrically measured using the N-(1-naphthyl) ethylenediamine dihydrochloride-sulfanilamide reagent method (American Public Health Association, 17th Ed., 1989). NH3 was colorimetrically measured by Nesslerization method (American Public Health Association, 17th Ed., 1989). CN was measured by the colorimetric method of Nagashima (1984). NH2 OH was measured by the method of Magee and Burris (1954).
^a All enzyme reactions were conducted in a reaction mix volume of 10
μl, containing 10 nmoles of substrate, 40 nmoles of NADPH. The
substrate depletion and product production were measured by HPLC or GC/MS
analysis. Relative enzyme activity for PCP was assumed to be 100%; the
relative enzyme activities for other compounds were compared with that fo

[2] = biological target: T1, PcpB; conditions: GC/MS; cited from earlier work
[3] = biological target: T1, PcpB; assay: PCP degradation as an assay of PcpB activity (HPLC); assay type: biochemical, Flavobacterium sp. Strain ATCC 39723
Experimental: PcpB activity was assayed by measuring the depletion of PCP and/or the production of TECH. […] MgSO4 was later determined not to enhance the activity of the purified enzyme. Tween 20 was determined to facilitate reproducible quantitation of PCP by high-performance liquid chromatography (HPLC) analysis as described below. A 10 μl volume of reaction mixture was injected onto the HPLC column at 4 min. after the start of the reaction. One unit of enzyme activity was defined as the amount of enzyme that catalyzed the production of 1 μmol of TeCH or the consumption of 1 μmol of PCP per min under the assay conditions. The reaction rate was linear for about 5 min. with […] of the enzyme, and then the reaction rate decreased gradually over the next 15 min.
PCP and TeCH were analyzed by HPLC (Waters, Milford, Mass.) on a Nova-Pak C18 column (3.9 by 150 mm) with an 11 mM H3 PO4 -acetonitrile gradient (acetonitrile concentrations 10 to 65% 5 min.! and 65% 10 min.!). Maximum absorption at 310, 320, and 330 nm was recorded by use of a Waters 490E programmable multiwavelength UV detector connected to a Maxima NEC computer workstation (Waters). The retention times of PCP and TeCH were 11.5 and 8.9 min., respectively. PCP and TeCH were quantified by comparing their peak areas with the peak areas of authentic standards. NADPH concentration in the reaction mixture was measured by HPLC on the Nova-Pak C18 column with an isocratic 50 mM KPi buffer (ph 8.0). Flavins were determined by HPLC on a μCarbohydrate analyzing column (3.9 by 300 mm) (Analytical Sciences Incorporated, Santa Clara, Calif.) with an isocratic solution of acetonitrile-distilled water (60:40, vol/vol). Protein purity was checked by HPLC on a Delta Pak C18 30 nm column (3.9 by 150 mm) with a water-acetonitrile gradient containing 0.1% trifluoroacetic acid (acetonitrile concentrations, 15% 1 min.!, 15 to 40% 1 min.!, 40% 2 min.!, 40 to 75% 8 min.!, 75 to 100% 1 min.!, 100% 7 min.!, 100 to 15% 1 min.!) at a flow rate of 1 ml/min. […]
and incubated at room temperature for 4 min. before being analyzed by […]

[4] = Stability of TeCH in the PcpB reaction mixture; assay type: physicochemical
[5] = biological target: T2, PcpC (Sphingobium chlorophenolicum, UniProt Q03520); assay type: biochemical, Flavobacterium sp. Strain ATCC 39723; conditions: 33 μg of purified enzyme per ml; GC-MS of ether extract
T2 construct: endogenous in cells; host or cells: Flavobacterium sp; Strain ATCC 39723, PCP-induced; enzyme purified in house from the native bacterium
T2 sequence (Q03520 2-248): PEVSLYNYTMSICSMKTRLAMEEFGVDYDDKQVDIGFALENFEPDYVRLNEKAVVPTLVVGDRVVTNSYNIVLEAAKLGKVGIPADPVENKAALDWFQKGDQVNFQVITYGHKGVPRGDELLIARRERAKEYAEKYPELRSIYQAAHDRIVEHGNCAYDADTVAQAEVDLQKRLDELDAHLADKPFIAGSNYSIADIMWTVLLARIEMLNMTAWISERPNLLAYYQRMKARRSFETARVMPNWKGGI
Experimental: Enzymatic activity assay. The reaction mixture contained 50 mM KPi buffer (pH 7.4), 0.4% Tween 20 (Sigma), 100 μM of TeCH, and 1 mM ascorbic acid. All the reactions were incubated at 23° C. in an anaerobic chamber containing an atmosphere of 85% N2, 5% CO2, and 10% H2 (Coy Laboratory Products Inc., Ann Arbor, Mich.). The reactions were stopped by addition of an equal volume of acetonitrile to the reaction mixture. TeCH stock solution (20 mM) was prepared in absolute ethanol. NADPH and NADH stock solutions (10 mM) were freshly prepared in 1 mM Tris buffer (pH 13) with 1 mM dithiothreitol. […]
Analytical method. […] TeCH, TrCH and DiCH were analyzed by HPLC on a Nova-Pak C-18 column (3.9 by 150 mm) (Waters, Milford, Mass.) with an 11 mM H3 PO4 -acetonitrile gradient as described above. Maximum absorption at 285, 300, 310 nm was recorded by using a Waters 490E programmable multiwave-length UV detector connected to a Maxima NEC computer workstation (Waters). […] TeCH and DiCH in the reaction mixtures were identified and quantified by comparison of their retention time and peak areas with that of authentic standards, respectively. TrCH was extracted with diethyl ether from the reaction mixture and analyzed by gas chromatography/mass spectrometry (GC/MS) as described by Topp and Akhtar (1990). […] GSH and the oxidized form of glutathione (GS-SG) were detected by the enzymatic method of Tietze (1969).

Oc1ccc(Cl)c(Cl)c1Cl [2,3,4-Trichlorophenol]
(%) Relative Activity (substrate disappearance in the presence of PcpB) [1]: 29%

Oc1c(Cl)c(Cl)cc(Cl)c1Cl [2,3,5,6-Tetrachlorophenol]
(%) Relative Activity (substrate disappearance in the presence of PcpB) [1]: 1212%
End Products of PcpB reaction [1]: TeCH

Oc1c(Cl)ccc(Cl)c1Cl [2,3,6-Trichlorophenol, 2,3,6-trichlorophenol]
(%) Relative Activity (substrate disappearance in the presence of PcpB) [1]: 302%
End Products of PcpB reaction [1]: 2,3,6-trichloro-p-hydroquinone

Oc1cccc(Cl)c1Cl [2,3-Dichlorophenol]
(%) Relative Activity (substrate disappearance in the presence of PcpB) [1]: 24%

Oc1c(Br)cc(Br)cc1Br [2,4,6-Tribromophenol]
(%) Relative Activity (substrate disappearance in the presence of PcpB) [1]: 35%

Oc1c(Cl)cc(Cl)cc1Cl [2,4,6-Trichlorophenol, 2,4,6-trichlorophenol]
(%) Relative Activity (substrate disappearance in the presence of PcpB) [1]: 29%
End Products of PcpB reaction [1]: 2,6-dichloro-p-hydroquinone

Oc1c(I)cc(I)cc1I [2,4,6-Triiodophenol]
(%) Relative Activity (substrate disappearance in the presence of PcpB) [1]: 172%
End Products of PcpB reaction [1]: 2,6-diiodo-p-hydroquinone

O=[N+]([O-])c1cc(Br)c(O)c(Br)c1 [2,6-Dibromo-4-nitrophenol]
(%) Relative Activity (substrate disappearance in the presence of PcpB) [1]: 62%

Oc1c(Br)cccc1Br [2,6-Dibromophenol]
(%) Relative Activity (substrate disappearance in the presence of PcpB) [1]: 605%

Oc1c(Cl)cccc1Cl [2,6-Dichlorophenol, 2,6-dichlorophenol]
(%) Relative Activity (substrate disappearance in the presence of PcpB) [1]: 344%
End Products of PcpB reaction [1]: 2,6-dichloro-p-hydroquinone

Oc1cc(Cl)c(Cl)c(Cl)c1 [3,4,5-Trichlorophenol, 3,4,5trichlorophenol]
(%) Relative Activity (substrate disappearance in the presence of PcpB) [1]: 0%
End Products of PcpB reaction [1]: None

N#Cc1cc(Br)c(O)c(Br)c1 [3,5-Dibromo-4-hydroxybenzonitrile]
End Products of PcpB reaction (from Topp et al.) [2]: 2,6-dibromo-p-hydroquinone
(%) Relative Activity (substrate disappearance in the presence of PcpB) [1]: 591%

Oc1cc(Cl)cc(Cl)c1 [3,5-Dichlorophenol, 3,5dichlorophenol]
(%) Relative Activity (substrate disappearance in the presence of PcpB) [1]: 0%
End Products of PcpB reaction [1]: None

N#Cc1cc(I)c(O)c(I)c1 [3,5-Diiodo-4-hydroxybenzonitrile]
(%) Relative Activity (substrate disappearance in the presence of PcpB) [1]: 835%
End Products of PcpB reaction ([1]; listed as 3,5-diiodo-4-hydroxylbenzonitrile): DIHQ

Nc1cc(Cl)c(O)c(Cl)c1 [4-Amino-2,6-dichlorophenol]
(%) Relative Activity (substrate disappearance in the presence of PcpB) [1]: 93%

O=C(O)CN(CCN(CC(=O)O)CC(=O)O)CC(=O)O [EDTA]
influence of additive on activity of purified PcpB [3]: did not influence the enzymatic activity

O=S(=O)([O-])[O-].[Mg+2] [MgSO4]
influence of additive on activity of purified PcpB ([3]; addition to 5 mM): did not influence the enzymatic activity

Oc1c(Cl)c(Cl)c(Cl)c(Cl)c1Cl [Pentachlorophenol]
Conversion of PCP to TeCH by purified PcpB ([3]; 37 μM PCP, 100 mM KPi buffer (pH 7.0), 100 μM NADPH, within 20 min.): completely converted
(%) Relative Activity (substrate disappearance in the presence of PcpB) [1]: 100%
End Products of PcpB reaction ([1]; listed as PCP): TeCH

Oc1c(F)c(F)c(F)c(F)c1F [Pentafluorophenol]
(%) Relative Activity (substrate disappearance in the presence of PcpB) [1]: 47%

Oc1c(Cl)c(Cl)c(O)c(Cl)c1Cl [TeCH, 2,3,5,6-tetrachloro-p-hydroquinone]
stability of TeCH ([4]; optimal pH conditions (7.5 to 9.0)): highly unstable
stability of TeCH ([4]; pH lower than 7.5): relatively stable
product of TeCH conversion by TeCH reductive dehalogenase [5]: DiCH

Oc1ccccc1 [phenol]
Extent of oxidation/degradation by the enzyme [1]: not degraded

— US5512478A, “Genes and enzymes involved in the microbial degradation of pentachlorophenol” (Idaho Research Foundation, Inc., priority 1994, dated 1996)
